Experimental data taken from the supplement of paper PMC11208160.

Assay: recombinant barcode read abundance after kanamycin selection (control-corrected) (log10(CPM+1)); higher = more efficient recombination; sequences stand for … in AGTGCAGAGAAAATCGGCCAGTTTTCTCTGCCTGCAGTCCGCATGCCGT…AGATTTATGCAGCGGACTGCCTTTCTCCCAAAGTGATAAACCGGACAGTATCATGGACCGGTTTTCCCGGTAATCCGTATTTGCAAGGTTGGTTTCACT; site = the 11-nt target
Summary of the method: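 For this pooled screen, each oligo contained a promoter, a target, a barcode and the J23119-driven first 104 bases of the bridge RNA. Gibson cloning placed it into a vector supplying the remaining 73 bp and a T7-inducible recombinase, and the pool was co-electroporated into E. coli with a donor plasmid. Recombination efficiency is derived from barcode counts per million at recombinant junctions after averaging and control correction, and is expressed on a log scale as log10(CPM+1), with selection on chloramphenicol/ampicillin/kanamycin plus 0.1 mM IPTG against a chloramphenicol/ampicillin LB agar control.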
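Note: IS621 recombinase and bridge RNA in Escherichia coli cells.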

Sequence | recombinant barcode read abundance (log10)
AGGAGCCCTTGGGTTCTAACCTGTTGCCA (site AGGAGCCCTAG) | 0.408
AGGAGCCCTTGGGTTCTAACCTGTTGCCA (site AGGAGCCCTTG) | 0.841
AGGAGCCCTTGGGTTCTAACCTGTTGCTA (site AGGAGCCCTAA) | 0.0121
AGGAGCCCTTGGGTTCTAACCTGTTGCTA (site AGGAGCCCTCA) | 0.165
AGGAGCCCTTGGGTTCTAACCTGTTGCTA (site AGGAGCCCTGA) | 0.0798
AGGAGCCCTTGGGTTCTAACCTGTTGCTA (site AGGAGCCCTTA) | 1.38
AGGATAGCTTGGGTTCTAACCTGTTGCGG (site AGGATAGCTCC) | 2.18
AGGATAGCTTGGGTTCTAACCTGTTGCGG (site AGTCTAGCTCC) | 0.102
AGGATAGCTTGGGTTCTAACCTGTTGCTG (site AGAATAGCTCT) | 0.148
AGGATAGCTTGGGTTCTAACCTGTTGCTG (site AGGATAGCTCA) | 1.45
AGGATCCCTTGGGTTCTAACCTGTTGCAG (site AGGATCCCTAT) | 0.701
AGGATCCCTTGGGTTCTAACCTGTTGCAG (site AGGATCCCTCT) | 2.31
AGGCCCGCTTGGGTTCTAACCTGTTGCGG (site AGGCCCGCTCC) | 0.794
AGGCCCGCTTGGGTTCTAACCTGTTGCGG (site GTAAGATCTGT) | 0.186
AGGCGCCCTTGGGTTCTAACCTGTTGCAG (site AGGCGCCCTAT) | 0.185
AGGCGCCCTTGGGTTCTAACCTGTTGCAG (site AGGCGCCCTCT) | 1.4
AGGCGCCCTTGGGTTCTAACCTGTTGCAG (site AGGCGCCCTGT) | 0.0789
AGGCGCCCTTGGGTTCTAACCTGTTGCAG (site AGGCGCCCTTT) | 0.122
AGGCGTCCTTGGGTTCTAACCTGTTGCCC (site AGGCGTCCTAG) | 0.417
AGGCGTCCTTGGGTTCTAACCTGTTGCCC (site AGGCGTCCTCG) | 0.0817
AGGCGTCCTTGGGTTCTAACCTGTTGCCC (site AGGCGTCCTGG) | 1.78
AGGCGTCCTTGGGTTCTAACCTGTTGCCC (site AGGCGTCCTTG) | 0.211
AGGCTGCCTTGGGTTCTAACCTGTTGCCT (site AGGCTGACTAG) | 0.126
AGGCTGCCTTGGGTTCTAACCTGTTGCCT (site AGGCTGCCTAG) | 0.867
AGGCTGCCTTGGGTTCTAACCTGTTGCCT (site AGGCTGGCTAG) | 0.0502
AGGCTGCCTTGGGTTCTAACCTGTTGCCT (site AGGCTGTCTAG) | 0.494

Sequence | recombinant barcode read abundance (log10)
AGGCTGGCTTGGGTTCTAACCTGTTGCCT (site AGGCTGACTAG) | 0.511
AGGCTGGCTTGGGTTCTAACCTGTTGCCT (site AGGCTGCCTAG) | 0.0205
AGGCTGGCTTGGGTTCTAACCTGTTGCCT (site AGGCTGGCTAG) | 0.482
AGGCTGGCTTGGGTTCTAACCTGTTGCCT (site AGGCTGTCTAG) | 0.166
AGGGACCCTTGGGTTCTAACCTGTTGCCT (site AGGGACCCTAG) | 2.62
AGGGACCCTTGGGTTCTAACCTGTTGCCT (site TCTTGGACTGT) | 0.0407
AGGGCAGCTTGGGTTCTAACCTGTTGCCT (site AGGGAAGCTAG) | 0.135
AGGGCAGCTTGGGTTCTAACCTGTTGCCT (site AGGGCAGCTAG) | 0.305
AGGGCAGCTTGGGTTCTAACCTGTTGCCT (site AGGGGAGCTAG) | 0.0111
AGGGCAGCTTGGGTTCTAACCTGTTGCCT (site AGGGTAGCTAG) | 0.0905
AGGGCGCCTTGGGTTCTAACCTGTTGCCT (site AAGGCGCCTAG) | 0.0579
AGGGCGCCTTGGGTTCTAACCTGTTGCCT (site ACGGCGCCTAG) | 0.173
AGGGCGCCTTGGGTTCTAACCTGTTGCCT (site AGGGCGCCTAG) | 1.63
AGGGCGCCTTGGGTTCTAACCTGTTGCCT (site ATGGCGCCTAG) | 0.122
AGGGGTCCTTGGGTTCTAACCTGTTGCAT (site AGGGGTCCTAT) | 2.72
AGGGGTCCTTGGGTTCTAACCTGTTGCAT (site TGGGATCCTAT) | 0.482
AGGGTACCTTGGGTTCTAACCTGTTGCAG (site AGGGTACCTCT) | 2.52
AGGGTACCTTGGGTTCTAACCTGTTGCAG (site GAATCGACTAG) | 0.0315
AGGGTAGCTTGGGTTCTAACCTGTTGCCT (site AGGGAAGCTAG) | 0.101
AGGGTAGCTTGGGTTCTAACCTGTTGCCT (site AGGGCAGCTAG) | 0.224
AGGGTAGCTTGGGTTCTAACCTGTTGCCT (site AGGGGAGCTAG) | 0.163
AGGGTAGCTTGGGTTCTAACCTGTTGCCT (site AGGGTAGCTAG) | 1.04
AGGTATGCTTGGGTTCTAACCTGTTGCCT (site AGGTATGCTAG) | 1.35
AGGTATGCTTGGGTTCTAACCTGTTGCCT (site AGGTCTGCTAG) | 0.0877
AGGTATGCTTGGGTTCTAACCTGTTGCCT (site AGGTGTGCTAG) | 0.51
AGGTATGCTTGGGTTCTAACCTGTTGCCT (site AGGTTTGCTAG) | 0.248

Sequence | recombinant barcode read abundance (log10)
AGGTCTACTTGGGTTCTAACCTGTTGCAC (site AGGTCTACTGT) | 0.521
AGGTCTACTTGGGTTCTAACCTGTTGCAC (site GTCCTATCTTA) | 0.13
AGGTCTACTTGGGTTCTAACCTGTTGCTT (site AGGTCTACTAA) | 0.296
AGGTCTACTTGGGTTCTAACCTGTTGCTT (site GAACGCTCTTG) | 0.171
AGGTTCCCTTGGGTTCTAACCTGTTGCTC (site AGGTTCCCTAA) | 0.243
AGGTTCCCTTGGGTTCTAACCTGTTGCTC (site AGGTTCCCTCA) | 0.101
AGGTTCCCTTGGGTTCTAACCTGTTGCTC (site AGGTTCCCTGA) | 1.45
AGGTTCCCTTGGGTTCTAACCTGTTGCTC (site AGGTTCCCTTA) | 0.026
AGTAAGCCTTGGGTTCTAACCTGTTGCCA (site AGTAAGCCTTG) | 0.33
AGTAAGCCTTGGGTTCTAACCTGTTGCCA (site AGTAAGGCTAG) | 0.113
AGTAAGGCTTGGGTTCTAACCTGTTGCCT (site AGTAAGCCTTG) | 0.44
AGTAAGGCTTGGGTTCTAACCTGTTGCCT (site AGTAAGGCTAG) | 0.0834
AGTACAACTTGGGTTCTAACCTGTTGCCT (site AGAACAACTAG) | 0.134
AGTACAACTTGGGTTCTAACCTGTTGCCT (site AGCACAACTAG) | 0.153
AGTACAACTTGGGTTCTAACCTGTTGCCT (site AGGACAACTAG) | 0.0508
AGTACAACTTGGGTTCTAACCTGTTGCCT (site AGTACAACTAG) | 0.237
AGTAGGACTTGGGTTCTAACCTGTTGCAG (site AGCAGGGCTCT) | 0.474
AGTAGGACTTGGGTTCTAACCTGTTGCAG (site AGTAGGACTCT) | 2
AGTAGTGCTTGGGTTCTAACCTGTTGCCT (site AATAGTGCTAG) | 0.186
AGTAGTGCTTGGGTTCTAACCTGTTGCCT (site ACTAGTGCTAG) | 0.0779
AGTAGTGCTTGGGTTCTAACCTGTTGCCT (site AGTAGTGCTAG) | 0.0473
AGTAGTGCTTGGGTTCTAACCTGTTGCCT (site ATTAGTGCTAG) | 0.0347
AGTATATCTTGGGTTCTAACCTGTTGCCT (site AGTATATCTAG) | 0.121
AGTATATCTTGGGTTCTAACCTGTTGCCT (site GGCATATCTAG) | 0.171
AGTATCCCTTGGGTTCTAACCTGTTGCCG (site AGTATCCCTCG) | 0.461
